The values below are quoted from earlier work in patent publication US8790676B2, “Microencapsulated pesticide” (priority 2005, dated 2014).

Where two headings read alike, the source gives them in different places. Bounds are passed on as bounds.

In the case of `CCN(Cc1ccc(Cl)nc1)/C(=C/[N+](=O)[O-])NC` [Nitempyram, (E)-N-(6-chloro-3-pyridylmethyl)-N-ethyl-N′-methyl-2-nitrovinylidenediamine], the water-solubility (pH 7) is above 590 mg/mL.
Consider “(E)-1-(2-chloro-1,3-thiazol-5-yl)-3-methyl-2-nitroguanidine [Clothianidin]”, for which the water-solubility (at pH 4.0, 20° C.) was 0.304 mg/mL.
